Measurements taken from EP4800015A1, “AZABICYCLO DERIVATIVE AND PREPARATION METHOD THEREFOR, AND USE” (Zhejiang Hisun Pharmaceutical Co., Ltd., priority 2023, dated 2025).
Read-outs that look alike come from different tables or passages of the source.

Legend:
[1] = target: T1, recombinant human WRN (Homo sapiens, UniProt Q14191); test: Inhibition of WRN enzyme activity (ATPase), ADP-Glo Kinase Assay; assay type: biochemical; details: WRN protein 5 nM, Flap 0.1 nM, ATP 30 µM
T1 construct: purchased BPS 101264
Method in brief: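 Recombinant human WRN (5 nM) was preincubated with compound (1000–0.004 nM) for 15 min at room temperature. Flap26 5'-flap DNA (0.1 nM) and 30 µM ATP were then added for 10 min in Tris pH 7.5, MgCl2, NaCl, BSA, Pluronic buffer. ADP was detected by ADP-Glo luminescence, and IC50 was obtained by nonlinear regression versus a 0.1% DMSO control.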

[2] = system: RL95-2 cells; test: Inhibition of RL95-2 cell proliferation (CellTiter-Glo); assay type: cell-based; details: Homo sapiens; RL95-2 cells (MSI-H), 120 hours
Method: The following method was used to determine the effect of the compounds of the present disclosure on RL95-2 cell proliferation. RL95-2 cells (MSI-H cells) were purchased from Cell Resource Center of Shanghai Institutes for Biological Sciences, Chinese Academy of Sciences, and cultured in DMEM/F12 medium (Gibco, catalog No. A4192001) containing 10% fetal bovine serum, 100 U penicillin, and 100 µg/mL streptomycin. Cell viability was determined by CellTiter-Glo® Luminescent Cell Viability Assay kit (Promega, catalog No. G7573).
The experiment was performed according to the steps of the kit manual, which is briefly described as follows: test compounds were first dissolved in DMSO to prepare 10 mM stock solutions, and then diluted with medium to prepare test samples, with final compound concentrations ranging from 10000 nM to 1.52 nM. Cells in logarithmic growth phase were seeded into 96-well cell culture plates at a density of 500 cells per well and cultured overnight at 37 °C in a 5% CO2 incubator, and then test compounds were added and cultivation continued for 120 hours. After the cultivation was completed, 50 µL of CellTiter-Glo detection reagent was added to each well, shaken for 5 minutes, and then left to stand for 10 minutes. Luminescence values of each well were read on a microplate reader using Luminescence mode. The percentage inhibition at each concentration point was calculated by comparison with the control group (0.1% DMSO), and then IC50 values for the compounds for inhibition of cell proliferation were obtained using nonlinear regression analysis of compound concentration logarithm versus inhibition rate in GraphPad Prism 9 software, as shown in Table 3.
The IC50 value results of the compounds of the present disclosure are represented by A, wherein "A" indicates 1 nM < IC50 ≤ 100 nM. Table 3 IC50 data for inhibition of RL95-2 cell proliferation by the compounds of the present disclosure

T1 sequence (Q14191 whole entry): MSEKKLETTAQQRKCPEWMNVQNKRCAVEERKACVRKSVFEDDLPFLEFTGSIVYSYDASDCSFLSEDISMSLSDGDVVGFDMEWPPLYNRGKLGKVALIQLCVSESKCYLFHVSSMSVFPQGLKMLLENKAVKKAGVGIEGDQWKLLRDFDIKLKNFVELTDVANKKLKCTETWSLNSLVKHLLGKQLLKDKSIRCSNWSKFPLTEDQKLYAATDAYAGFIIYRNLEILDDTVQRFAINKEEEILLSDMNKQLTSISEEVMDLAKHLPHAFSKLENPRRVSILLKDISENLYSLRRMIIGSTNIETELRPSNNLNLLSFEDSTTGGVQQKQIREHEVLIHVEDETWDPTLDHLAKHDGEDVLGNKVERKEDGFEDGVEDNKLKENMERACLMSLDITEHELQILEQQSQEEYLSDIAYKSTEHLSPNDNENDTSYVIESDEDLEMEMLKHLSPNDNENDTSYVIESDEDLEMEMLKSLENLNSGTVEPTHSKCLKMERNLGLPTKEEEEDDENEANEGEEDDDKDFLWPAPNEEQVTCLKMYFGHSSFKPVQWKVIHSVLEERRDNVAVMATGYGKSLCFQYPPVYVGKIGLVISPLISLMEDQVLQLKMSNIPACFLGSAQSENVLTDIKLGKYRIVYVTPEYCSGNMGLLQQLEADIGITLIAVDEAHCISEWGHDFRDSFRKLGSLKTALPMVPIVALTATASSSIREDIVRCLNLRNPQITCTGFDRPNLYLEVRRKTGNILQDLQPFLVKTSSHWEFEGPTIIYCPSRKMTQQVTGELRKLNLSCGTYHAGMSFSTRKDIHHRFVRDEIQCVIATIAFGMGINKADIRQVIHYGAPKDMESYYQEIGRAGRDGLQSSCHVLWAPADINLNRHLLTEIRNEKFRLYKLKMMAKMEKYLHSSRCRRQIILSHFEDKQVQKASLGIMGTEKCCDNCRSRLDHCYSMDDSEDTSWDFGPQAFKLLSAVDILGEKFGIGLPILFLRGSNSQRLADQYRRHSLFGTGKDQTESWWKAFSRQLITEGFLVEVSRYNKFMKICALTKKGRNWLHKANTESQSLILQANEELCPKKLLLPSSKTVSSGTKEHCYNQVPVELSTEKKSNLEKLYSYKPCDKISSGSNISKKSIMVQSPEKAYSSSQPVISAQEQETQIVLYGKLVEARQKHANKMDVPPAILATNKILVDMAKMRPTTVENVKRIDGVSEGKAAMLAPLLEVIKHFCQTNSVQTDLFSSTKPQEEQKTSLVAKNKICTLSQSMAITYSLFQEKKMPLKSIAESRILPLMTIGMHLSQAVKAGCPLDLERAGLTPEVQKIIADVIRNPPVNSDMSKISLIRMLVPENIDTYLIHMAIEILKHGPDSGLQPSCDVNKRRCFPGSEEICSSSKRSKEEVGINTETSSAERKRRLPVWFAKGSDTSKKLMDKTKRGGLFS

SMILES	IC50 ([1]; read-out: IC50)	IC50 [2]	IC50 [1]
CCc1c(N2CCN(C(=O)c3ncnc(C)c3O)CC2)c(=O)n2nc(-c3ccc4ccoc4c3)nc2n1CC(=O)Nc1ccc(S(F)(F)(F)(F)F)cc1 [Example 77, 2-(2-(benzofuran-6-yl)-5-ethyl-6-(4-(5-hydroxy-6-methylpyrimidine-4-carbonyl)piperazin-1-yl)-7-oxo-[1,2,4]triazolo[1,5-a]pyrimidin-4(7H)-yl)-N-(4-(pentafluoro-λ^6-sulfaneyl)phenyl)acetamide]	1 to 100 nM	1 to 100 nM	
CCc1c(N2CCN(C(=O)c3ncnc(C)c3O)CC2)c(=O)n2nc(-c3ccc4c(c3)CCO4)nc2n1CC(=O)Nc1ccc(SC(F)(F)F)cc1F [Example 89, 2-(2-(2,3-Dihydrobenzofuran-5-yl)-5-ethyl-6-(4-(5-hydroxy-6-methylpyrimidine-4-carbonyl)piperazin-1-yl)-7-oxo-[1,2,4]triazolo[1,5-a]pyrimidin-4(7H)-yl)-N-(2-fluoro-4-((trifluoromethyl)thio)phenyl)acetamide]	1 to 100 nM	1 to 100 nM	
CCc1c(N2CCN(C(=O)c3ncccc3O)CC2)c(=O)n2nc(C3=CC4COCC4C3)nc2n1CC(=O)Nc1ccc(S(F)(F)(F)(F)F)cc1 (stereo not shown) [Example 187, 2-(5-ethyl-6-(4-(3-hydroxypicolinoyl)piperazin-1-yl)-7-oxo-2-(3,3a,4,6a-tetrahydro-1H-cyclopenta[c]furan-5-yl)-[1,2,4]triazolo[1,5-a]pyrimidin-4(7H)-yl)-N-(4-(pentafluoro-λ^6-sulfaneyl)phenyl) acetamide]			1 to 100 nM
CCc1c(N2CCN(C(=O)c3ncnc(C)c3O)CC2)c(=O)n2nc(C3=CC4COCC4C3)nc2n1CC(=O)Nc1ccc(S(F)(F)(F)(F)F)cc1 (stereo not shown) [Example 189, 2-(5-ethyl-6-(4-(5-hydroxy-6-methylpyrimidine-4-carbonyl)piperazin-1-yl)-7-oxo-2-(3,3a,4,6a-tetrahydro-1H-cyclopenta[c]furan-5-yl)-[1,2,4]triazolo[1,5-a]pyrimidin-4(7H)-yl)-N-(4-(pentafluor o-λ^6-sulfaneyl)phenyl)acetamide]	1 to 100 nM		
CCO/C=C/c1nc2n(CC(=O)Nc3ccc(C(F)(F)F)cc3Cl)c(CC)c(N3CCN(C(=O)c4ncnc(C)c4O)CC3)c(=O)n2n1 [Example 193, (E)-N-(2-chloro-4-(trifluoromethyl)phenyl)-2-(2-(2-ethoxyvinyl)-5-ethyl-6-(4-(5-hydroxy-6-methylpyrimidine-4-carbonyl)piperazin-1-yl)-7-oxo-[1,2,4]triazolo[1,5-a]pyrimidin-4(7H)-yl)acetamide]	1 to 100 nM		
CCc1c(N2CCN(C(=O)c3ncnc(C)c3O)CC2)c(=O)n2nc(/C=C/C(=O)N3CCC3)nc2n1CC(=O)Nc1ccc(C(F)(F)F)cc1Cl [Example 194, (E)-2-(2-(3-(azetidin-1-yl)-3-oxoprop-1-en-1-yl)-5-ethyl-6-(4-(5-hydroxy-6-methylpyrimidine-4-carbonyl)piperazin-1-yl)-7-oxo-[1,2,4]triazolo[1,5-a]pyrimidin-4(7H)-yl)-N-(2-chloro-4-(trifluor omethyl)phenyl)acetamide]	1 to 100 nM		
CCc1c(N2CCN(C(=O)c3ncnc(C)c3O)CC2)c(=O)n2nc(C3=C[C@@H]4C[C@@H]4C3)nc2n1CC(=O)Nc1ccc(S(F)(F)(F)(F)F)cc1 [Example 195, 2-(2-((1R,5R)-bicyclo[3.1.0]hex-2-en-3-yl)-5-ethyl-6-(4-(5-hydroxy-6-methylpyrimidine-4-carbonyl)piperazin-1-yl)-7-oxo-[1,2,4]triazolo[1,5-a]pyrimidin-4(7H)-yl)-N-(4-(pentafluoro-λ6-sulfaneyl)phenyl)acetamide]	1 to 100 nM		
CCc1c(N2CCN(C(=O)c3ncnc(C)c3O)CC2)c(=O)n2nc(C3=C[C@H]4C[C@H]4C3)nc2n1CC(=O)Nc1ccc(S(F)(F)(F)(F)F)cc1 [Example 196, 2-(2-((1S,5S)-bicyclo[3.1.0]hex-2-en-3-yl)-5-ethyl-6-(4-(5-hydroxy-6-methylpyrimidine-4-carbonyl)piperazin-1-yl)-7-oxo-[1,2,4]triazolo[1,5-a]pyrimidin-4(7H)-yl)-N-(4-(pentafluoro-λ6-sulfaneyl)phenyl)acetamide]			1 to 100 nM

More lines, main results first:

IC50 ([1]; read-out: IC50)	SMILES	IC50 [2]	IC50 [1]
1 to 100 nM	CCc1c(N2CCN(C(=O)c3ncnc(C)c3O)CC2)c(=O)n2nc(C3=CCCCOC3)nc2n1CC(=O)Nc1ccc(C(F)(F)F)cc1Cl [Example 62, N-(2-chloro-4-(trifluoromethyl)phenyl)-2-(5-ethyl-6-(4-(5-hydroxy-6-methylpyrimidine-4-carbonyl)piperazin-1-yl)-7-oxo-2-(2,5,6,7-tetrahydrooxepin-3-yl)-[1,2,4]triazolo[1,5-a]pyrimidin-4(7H) -yl)acetamide]	1 to 100 nM	
1 to 100 nM	CCc1c(N2CCN(C(=O)c3ncnc(C)c3O)CC2)c(=O)n2nc(C3=CCCCOC3)nc2n1CC(=O)Nc1ccc(S(F)(F)(F)(F)F)cc1 [Example 63, 2-(5-ethyl-6-(4-(5-hydroxy-6-methylpyrimidine-4-carbonyl)piperazin-1-yl)-7-oxo-2-(2,5,6,7-tetra hydrooxepin-3-yl)-[1,2,4]triazolo[1,5-a]pyrimidin-4(7H)-yl)-N-(4-(pentafluoro-λ^6-sulfaneyl)phenyl)acetamide]	1 to 100 nM	
1 to 100 nM	CCc1c(N2CCN(C(=O)c3ncnc(C)c3O)CC2)c(=O)n2nc(C3=CCC4(CC3)COC4)nc2n1CC(=O)Nc1ccc(C(F)(F)F)cc1Cl [Example 65, N-(2-chloro-4-(trifluoromethyl)phenyl)-2-(5-ethyl-6-(4-(5-hydroxy-6-methylpyrimidine-4-carbonyl)piperazin-1-yl)-7-oxo-2-(2-oxaspiro[3.5]non-6-en-7-yl)-[1,2,4]triazolo[1,5-a]pyrimidin-4(7H)-yl)acetamide]	1 to 100 nM	
< 1 nM	CCc1c(N2CCN(C(=O)c3ncnc(C)c3O)CC2)c(=O)n2nc(C3=CC4CC4C3)nc2n1CC(=O)Nc1ccc(S(F)(F)(F)(F)F)cc1 (stereo not shown) [Example 66, 2-(2-(Bicyclo[3.1.0]hex-2-en-3-yl)-5-ethyl-6-(4-(5-hydroxy-6-methylpyrimidine-4-carbonyl)piperazin-1-yl)-7-oxo-[1,2,4]triazolo[1,5-a]pyrimidin-4(7H)-yl)-N-(4-(pentafluoro-λ^6-thiol)phenyl)acetamide]	1 to 100 nM	
< 1 nM	CCc1c(N2CCN(C(=O)c3ncnc(C)c3O)CC2)c(=O)n2nc(-c3cccc4ccoc34)nc2n1CC(=O)Nc1ccc(C(F)(F)F)cc1Cl [Example 69, 2-(2-(benzofuran-7-yl)-5-ethyl-6-(4-(5-hydroxy-6-methylpyrimidine-4-carbonyl)piperazin-1-yl)-7-oxo-[1,2,4]triazolo[1,5-a]pyrimidin-4(7H)-yl)-N-(2-chloro-4-(trifluoromethyl)phenyl)acetamide]	1 to 100 nM	
1 to 100 nM	CCc1c(N2CCN(C(=O)c3ncnc(C)c3O)CC2)c(=O)n2nc(C3=CCCCCC3)nc2n1CC(=O)Nc1ccc(S(F)(F)(F)(F)F)cc1Cl [Example 70, N-(2-chloro-4-(pentafluoro-λ^6-sulfaneyl)phenyl)-2-(2-(cyclohept-1-en-1-yl)-5-ethyl-6-(4-(5-hydroxy-6-methylpyrimidine-4-carbonyl)piperazin-1-yl)-7-oxo-[1,2,4]triazolo[1,5-a]pyrimidin-4(7H) -yl)acetamide]	1 to 100 nM	
< 1 nM	CCc1c(N2CCN(C(=O)c3ncccc3O)CC2)c(=O)n2nc(C3=CC4CC(=O)CC4C3)nc2n1CC(=O)Nc1ccc(S(F)(F)(F)(F)F)cc1 (stereo not shown) [Example 71, 2-(5-ethyl-6-(4-(3-hydroxypicolinoyl)piperazin-1-yl)-7-oxo-2-(5-oxo-1,3a,4,5,6,6a-hexahydropentalen-2-yl)-[1,2,4]triazolo[1,5-a]pyrimidin-4(7H)-yl)-N-(4-(pentafluoro-λ^6-sulfaneyl)phenyl)acetamide]	1 to 100 nM	
1 to 100 nM	CCc1c(N2CCN(C(=O)c3ncnc(C)c3O)CC2)c(=O)n2nc(-c3cc4ccccc4[nH]3)nc2n1CC(=O)Nc1ccc(C(F)(F)F)cc1Cl [Example 73, N-(2-Chloro-4-(trifluoromethyl)phenyl)-2-(5-ethyl-6-(4-(5-hydroxy-6-methylpyrimidine-4-carbonyl)piperazin-1-yl)-2-(1H-indol-2-yl)-7-oxo-[1,2,4]triazolo[1,5-a]pyrimidin-4(7H)-yl)acetamide]	1 to 100 nM	
1 to 100 nM	CCc1c(N2CCN(C(=O)c3ncnc(C)c3O)CC2)c(=O)n2nc(-c3cc4ccccc4n3C)nc2n1CC(=O)Nc1ccc(C(F)(F)F)cc1Cl [Example 74, N-(2-chloro-4-(trifluoromethyl)phenyl)-2-(5-ethyl-6-(4-(5-hydroxy-6-methylpyrimidine-4-carbonyl)piperazin-1-yl)-2-(1-methyl-1H-indol-2-yl)-7-oxo-[1,2,4]triazolo[1,5-a]pyrimidin-4(7H)-yl)ac etamide]	1 to 100 nM	
